Here are results for 14 compounds from ChEMBL document CHEMBL1201862, “PubChem BioAssay data set” (2004).

Some test systems named below: M14; ACHN; SF-295; OVCAR-5; SK-MEL-28; LOX IMVI; UACC-62; HCT-15; Malme-3M; NCI-H226; HT-29; CAKI-1; SK-OV-3; RPMI-8226; HCC 2998; SNB-19.
Assay in all cases: growth of human tumour cells (NCI), 48 h

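Exposure lasted 48 hours, with cells grown in 96-well plates and compounds tested at five concentrations. GI50 is the concentration that inhibits growth by half.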 Activity calls are given as the source filed them. Cut-off read from the data, not from the text of the source: active = GI50 up to about 1.1 µM and inactive = higher.

`O=c1c2ccccc2nc(-c2ccccc2)n1NC(=S)Nc1cccc(Cl)c1`: the GI50 in the test on M14 is > 100 µM (inactive); with ACHN, > 100 µM (inactive); with SF-295, 64.4 µM (inactive); in the test with OVCAR-5, > 100 µM (inactive); with SK-MEL-28, > 100 µM (inactive); with LOX IMVI it was > 100 µM (inactive). For the same compound, the GI50 in the test with UACC-62 is 75 µM (inactive); in the test with HCT-15, greater than 100 µM; in the test with Malme-3M, > 100 µM (inactive); in the test on NCI-H226, > 100 µM (inactive); with HT-29, > 100 µM (inactive); in the test with CAKI-1, > 100 µM (inactive). The values for the GI50 with SK-OV-3 and in the test on RPMI-8226 were 40.4 µM (inactive) and > 100 µM (inactive), respectively.
For the compound `COC(=O)NN=C1C(C)(C)C(=O)C1(C)C`, the GI50 in the test on M14, with ACHN, in the test on SF-295, in the test with OVCAR-5, with SK-MEL-28 and in the test on LOX IMVI was > 100 µM (inactive) in each case. Besides, the GI50 with UACC-62, in the test with Malme-3M, in the test on NCI-H226, in the test on HCC 2998, in the test with HT-29 and in the test with SK-OV-3 was > 100 µM (inactive) in each case. Also, in the test on RPMI-8226, the GI50 was > 100 µM (inactive).
As for `c1ccc(N2CCN(CCN3CCc4c([nH]c5ccccc45)C3c3cccnc3)CC2)cc1` (centres undefined), the GI50 was > 100 µM (inactive) in the test on M14; > 100 µM (inactive) with ACHN; 80 µM (inactive) with SF-295; > 100 µM (inactive) in the test with OVCAR-5; > 100 µM (inactive) in the test on SK-MEL-28; > 100 µM (inactive) in the test with UACC-62. The GI50 is greater than 100 µM in the test with HCT-15; > 100 µM (inactive) in the test with HCC 2998; > 100 µM (inactive) in the test on HT-29; > 100 µM (inactive) in the test on CAKI-1; 24 µM (inactive) with SK-OV-3; > 100 µM (inactive) in the test on SNB-19. For the same compound, the GI50 in the test on RPMI-8226 is > 100 µM (inactive).
As for `CP(=O)(CCSc1ccccc1)c1ccccc1` (centres undefined), the GI50 in the test with M14, in the test on ACHN, in the test on SF-295, in the test with SK-MEL-28, in the test with LOX IMVI and in the test on UACC-62 was > 100 µM (inactive) throughout. Besides, the GI50 is greater than 100 µM with HCT-15; > 100 µM (inactive) in the test with Malme-3M; > 100 µM (inactive) with NCI-H226; > 100 µM (inactive) in the test with HCC 2998; > 100 µM (inactive) with HT-29; > 100 µM (inactive) in the test with CAKI-1. Further, the GI50 in the test with SK-OV-3, in the test with SNB-19 and in the test with RPMI-8226 was > 100 µM (inactive) throughout.
Turning to `CSC(C1c2ccccc2N(C)c2[nH]c(=O)n(C)c(=O)c21)S(=O)(=O)c1ccc(C)cc1` (centres undefined), the GI50 with SF-295 was > 100 µM (inactive); in the test on OVCAR-5, > 100 µM (inactive); in the test on SK-MEL-28, > 100 µM (inactive); in the test with LOX IMVI it was > 100 µM (inactive); in the test with UACC-62, > 100 µM (inactive); in the test with HCT-15 it was 64.3 µM. In addition, the GI50 with Malme-3M, with NCI-H226, in the test with HCC 2998, in the test with HT-29, in the test with CAKI-1 and in the test on SK-OV-3 was > 100 µM (inactive) each time. Further, the GI50 is > 100 µM (inactive) in the test with SNB-19 and > 10 µM (inactive) in the test with RPMI-8226.
Turning to `CC(=O)OC1[C@H]2c3cc4c(cc3CN3CCC(C[C@@H]1OC(C)=O)C23)OCO4` (some centres undefined), the GI50 with M14, in the test with ACHN, with SF-295, with SK-MEL-28, in the test on LOX IMVI and in the test with UACC-62 was > 75 µM (inactive) in each case. For the same compound, the GI50 in the test on HCT-15 was greater than 75 µM; with Malme-3M, > 75 µM (inactive); with NCI-H226, 8.13 µM (inactive); in the test with HCC 2998, > 75 µM (inactive); in the test with HT-29, > 75 µM (inactive); in the test with SK-OV-3 it was > 75 µM (inactive). Also, the GI50 in the test with SNB-19 and in the test with RPMI-8226 was > 75 µM (inactive) each time.
In the case of `COc1ccc(NCC#N)cc1`, the GI50 in the test on M14, in the test with ACHN, in the test with SF-295, in the test with OVCAR-5, in the test with SK-MEL-28 and in the test with LOX IMVI was > 100 µM (inactive) each time. Further, the GI50 was 83.4 µM (inactive) with UACC-62; greater than 100 µM in the test with HCT-15; > 100 µM (inactive) in the test with Malme-3M; > 100 µM (inactive) in the test on HCC 2998; > 100 µM (inactive) in the test with HT-29; > 100 µM (inactive) in the test with SK-OV-3. The GI50 in the test on SNB-19 and in the test on RPMI-8226 was > 100 µM (inactive) each time.
On to `C/C(=N/NC(N)=S)C(CN1CCOCC1)C(C1=C(O)c2ccccc2OC1)c1ccccc1` (centres undefined), for which the GI50 with M14, with ACHN, in the test with SF-295, in the test on OVCAR-5, with LOX IMVI and in the test with UACC-62 was > 100 µM (inactive) each time. Further, the GI50 was 69 µM (inactive) in the test on Malme-3M; > 100 µM (inactive) in the test with NCI-H226; > 100 µM (inactive) in the test with HCC 2998; > 100 µM (inactive) with HT-29; > 100 µM (inactive) with CAKI-1; > 100 µM (inactive) with SK-OV-3. Further, the GI50 is > 100 µM (inactive) in the test with SNB-19 and 90.2 µM (inactive) in the test on RPMI-8226.
Consider `O=C(Nc1ccc(Cl)c(C(F)(F)F)c1)C(=O)C(C(=O)/C=C/c1ccccc1)C1OC(=O)c2ccccc21` (centres undefined), for which the GI50 was > 100 µM (inactive) in the test with M14; > 100 µM (inactive) in the test with ACHN; > 100 µM (inactive) with SF-295; > 100 µM (inactive) in the test on OVCAR-5; 90.2 µM (inactive) in the test on LOX IMVI; 71.1 µM (inactive) in the test with UACC-62. Moreover, the GI50 with HCT-15 was greater than 100 µM; in the test on Malme-3M, > 100 µM (inactive); with NCI-H226, > 100 µM (inactive); with HCC 2998, > 100 µM (inactive); with HT-29, > 100 µM (inactive); in the test with CAKI-1 it was > 100 µM (inactive). Moreover, the GI50 in the test on SK-OV-3 was > 100 µM (inactive); with SNB-19, > 100 µM (inactive); with RPMI-8226, 72.8 µM (inactive).
For the compound `O=C(/C=N/c1ccccc1C(=O)[O-])c1cccs1.O=C(/C=N/c1ccccc1C(=O)[O-])c1cccs1.[Zn+2]`, the GI50 with M14 is 36.4 µM (inactive); in the test with ACHN, > 100 µM (inactive); in the test on SF-295, 20.4 µM (inactive); in the test with OVCAR-5 it was 24.7 µM (inactive); in the test on SK-MEL-28 it was 39.5 µM (inactive); with LOX IMVI, 27.4 µM (inactive). For the same compound, the GI50 with UACC-62 is 20.8 µM (inactive); in the test with HCT-15, greater than 100 µM; in the test on Malme-3M, > 10 µM (inactive); with HCC 2998, > 10 µM (inactive); in the test with HT-29 it was > 100 µM (inactive); with CAKI-1, 91 µM (inactive). Besides, the figures for the GI50 with SK-OV-3 and in the test on SNB-19 were 20.5 µM (inactive) and 43.1 µM (inactive), respectively.
Take `O=[N+]([O-])c1ccc(Cc2nc3ccccc3s2)cc1`: the GI50 is 99.8 µM (inactive) with M14; > 100 µM (inactive) in the test with ACHN; > 100 µM (inactive) with SF-295; > 100 µM (inactive) with OVCAR-5; > 100 µM (inactive) with SK-MEL-28; 68.1 µM (inactive) in the test on UACC-62. Moreover, the GI50 in the test with HCT-15 was greater than 100 µM; in the test with Malme-3M, > 100 µM (inactive); with NCI-H226, > 100 µM (inactive); in the test with HCC 2998 it was > 100 µM (inactive); in the test on HT-29, 66.5 µM (inactive); in the test on CAKI-1, > 100 µM (inactive). For the same compound, the GI50 in the test with SK-OV-3 was > 100 µM (inactive); with SNB-19 it was > 100 µM (inactive); in the test on RPMI-8226, 49.4 µM (inactive).
As to `Fc1cccc(F)c1C1SCc2nc3ccccc3n21` (centres undefined) [THIAZOLOBENZIMIDAZOLE], the GI50 was > 100 µM (inactive) with M14; > 100 µM (inactive) in the test with ACHN; 39.8 µM (inactive) in the test with SF-295; 85.9 µM (inactive) in the test on OVCAR-5; 80.4 µM (inactive) in the test on LOX IMVI; 47 µM (inactive) in the test with UACC-62. Moreover, the GI50 was 54.5 µM in the test with HCT-15; 55.5 µM (inactive) in the test with Malme-3M; 97.5 µM (inactive) in the test with NCI-H226; > 100 µM (inactive) with HCC 2998; 62.7 µM (inactive) in the test on HT-29; > 100 µM (inactive) in the test with CAKI-1. The GI50 in the test on SK-OV-3 was > 100 µM (inactive); with SNB-19 it was > 100 µM (inactive); with RPMI-8226 it was 35.2 µM (inactive).
As for `COC(=O)/C=C1\CCC2[C@@H](C(=O)CC3[C@]2(C)CCC[C@@]3(C)C(=O)OC)C1C` (some centres undefined), the GI50 was 17.9 µM (inactive) in the test with M14; 22.5 µM (inactive) in the test on ACHN; 25.6 µM (inactive) with SF-295; 33 µM (inactive) in the test on OVCAR-5; 16.3 µM (inactive) in the test on SK-MEL-28; 13.6 µM (inactive) in the test with UACC-62. The GI50 was 29.8 µM with HCT-15; 21.1 µM (inactive) in the test on Malme-3M; 20 µM (inactive) in the test on NCI-H226; 34.6 µM (inactive) in the test on HCC 2998; 24 µM (inactive) with HT-29; 30.1 µM (inactive) with CAKI-1. The GI50 in the test on SK-OV-3 was 37.9 µM (inactive); in the test on SNB-19 it was 32.4 µM (inactive); with RPMI-8226 it was 3.93 µM (inactive).
Turning to `O=C(CSc1nnc(Cc2ccccc2)o1)Nc1ccc([N+](=O)[O-])cc1`, the GI50 was > 100 µM (inactive) in the test on M14; > 100 µM (inactive) in the test on ACHN; 52 µM (inactive) in the test with SF-295; > 100 µM (inactive) with OVCAR-5; > 100 µM (inactive) in the test on SK-MEL-28; 61.7 µM (inactive) in the test with LOX IMVI. The GI50 in the test on UACC-62 was > 100 µM (inactive); in the test with HCT-15 it was greater than 100 µM; in the test with Malme-3M it was > 100 µM (inactive); in the test on NCI-H226, > 100 µM (inactive); in the test on HCC 2998, > 100 µM (inactive); in the test on HT-29, 48 µM (inactive). The GI50 in the test on SK-OV-3 and in the test on RPMI-8226 was > 100 µM (inactive) in each case.
